Results as given in PMC12811501, “A plant-derived antimicrobial peptide with multiple mechanisms of action exhibiting antibacterial and antibiofilm activities comparable to or superior to polymyxin B” (Current Research in Microbial Sciences, 2025).
Values after ≈ are worked out from the molar mass of the structure shown. Residues, ends and D or L forms follow the SMILES beside them.

Experiments:
S. aureus = assay type: cell-based, Staphylococcus aureus; conditions: 8 h
Method: For serum stability test human blood was purchased from the Regional Blood Centre in Szeged (the use of human blood has been authorized by the Regional Hungarian Ethics Committee and approved by the Ethics Review Sector of DG RTD (European Commission) in connection with EK’s ERC AdG SymBiotics). The cells from 10 ml of EDTA-blood were centrifuged at 1500 × g for 1 min and washed several times in TBS buffer (10 mM Tris, pH: 7.2, 150 mM NaCl) until the supernatant, representing the serum, became colorless. The NCR169C17–38 peptide was added to the serum at 1:1 ratio and incubated at room temperature for 8 h. Subsequently, serial 2-fold dilutions of the peptide were prepared in PPB, with concentrations ranging from 100 to 0.2 µM and antimicrobial assay was done to determine the MBC values. Experiments were done in three biological replicates.

[1] = tested on: circular plasmid DNA (pDEST-GBKT7); assay: Gel retardation assay; assay type: binding; conditions: 250 ng circular plasmid DNA, peptide 50 µM to 0.8 µM
Method: The DNA- and RNA-binding abilities of NCR169C17–38, its parental peptide NCR169, and two shorter derivatives (NCR169_16–27 and NCR169_17–27) were initially evaluated using a gel retardation assay. In this setup, 100 ng of either E. coli genomic DNA or total RNA was incubated with 10 µM or 100 µM of each peptide for 30 min at 37 °C. Reaction mixtures, along with untreated controls, were then subjected to agarose gel electrophoresis, and the resulting nucleic acid migration patterns were examined for changes indicative of peptide binding. The interaction of NCR169C17–38 with circular plasmid DNA (pDEST-GBKT7) was also characterized using peptide concentrations ranging from 50 µM to 0.8 µM, prepared by 2-fold serial dilution. Experiments were done in three biological replicates.
To explore whether the NCR169C17–38 peptide has secondary intracellular targets of the bacterial cells beyond the primary membrane disruption, we tested its possible interaction with nucleic acids in gel retardation assays. A pilot experiment indicated strong DNA-binding capacity, prompting us to include the parental NCR169 peptide and the shorter derivatives NCR169_16–27 and NCR169_17–27 for comparison (Fig. 3.). […] Similar results were obtained with total E. coli RNA (Fig. 3.B). […]

E. coli [2] = assay: Live/Dead staining (SYTO 9 / PI) of membrane integrity, confocal microscopy; assay type: cell-based, Escherichia coli; conditions: 10 min
Method: Microbial cell membrane integrity or damage was assayed with Live/Dead staining. E. coli were grown as for the antimicrobial activity assay and washed with PPB. […] Untreated cells served as negative control. Cells were subsequently stained with 5 μM SYTO 9 and 5 μM propidium iodide (PI). After a 10-minute incubation in the dark, 5 µl of each cell suspension was placed on a microscope slide, covered with thin 2 % (w/v) agar slices, and examined using an Olympus Fluoview FV1000 confocal laser microscope at × 60 magnification. For SYTO 9, excitation was at 488 nm and emission was collected between 500 and 530 nm; for PI, excitation was at 543 nm with emission detected between 555 and 655 nm. Sequential scanning was used to avoid crosstalk of the fluorescent dyes.
Next, we investigated whether the application of NCR169C17–38 peptide affects membrane permeability of E. coli, and if so, to what extent and how rapidly these changes occur.

E. coli [3] = assay: Real-time PI uptake; assay type: cell-based, Escherichia coli
Method: To monitor PI uptake in real time, 10 µl of E. coli suspension (OD₆₀₀ = 0.1, prepared as described above) was mixed with 90 µl of PPB containing a two-fold serial dilution of NCR169C17–38 (12.5 µM to 0.8 µM) or polymyxin B (0.8 µM), along with 200 ng/ml PI. Fluorescence was recorded using a Hidex Sense Microplate Reader (software version 5064) with excitation and emission wavelengths set at 535 nm and 617 nm, respectively. Experiments were repeated three times.
To get a more precise assessment of how rapidly NCR169C17–38 induces membrane damage, we monitored PI uptake in real time. E. coli was treated in a microtiter plate with two-fold dilutions of NCR169C17–38 (12.5 - 0.8 µM) and PI fluorescence was measured using a plate reader (Fig. 2.C). For comparison, polymyxin B, a well-known membrane-permeabilizing/damaging antibiotic, was included as a control. A rapid rise in fluorescence within 1–2 min was observed upon exposure to NCR169C17–38 at MBC or higher concentrations, indicating swift membrane permeabilization.

CC[C@H](C)[C@H](NC(=O)[C@H](CCCCN)NC(=O)[C@H](Cc1ccccc1)NC(=O)[C@H](CC(C)C)NC(=O)[C@@H]1CCCN1C(=O)[C@H](CCCCN)NC(=O)[C@H](CCCCN)NC(=O)[C@H](CO)NC(=O)[C@@H](N)CCCCN)C(=O)N[C@@H](Cc1c[nH]c2ccccc12)C(=O)N[C@@H](CCCCN)C(=O)N[C@@H](CS)C(=O)N[C@H](C(=O)N[C@@H](CCC(=O)O)C(=O)N[C@@H](CC(N)=O)C(=O)N[C@H](C(=O)N[C@@H](CS)C(=O)N[C@H](C(=O)N[C@@H](CC(C)C)C(=O)N[C@@H](Cc1c[nH]c2ccccc12)C(=O)N[C@@H](Cc1ccc(O)cc1)C(=O)N[C@@H](CCCCN)C(N)=O)C(C)C)C(C)C)C(C)C [NCR169C17–38] (H-KSKKPLFKIWKCVENVCVLWYK-NH2; N-terminus assumed)
MBC after pre-incubation in human serum (S. aureus): 3.1 µM (≈ 8.49 µg/mL)
plasmid DNA binding, gel retardation [1]: complete retention of DNA in the well at higher concentrations
membrane integrity, SYTO 9 / PI staining (E. coli [2]; 0.8 µM peptide): predominantly red-stained cells
membrane integrity, SYTO 9 / PI staining (E. coli [2]; 1.6 µM peptide): all cells appeared red
time to rapid rise in PI fluorescence (E. coli [3]; E. coli in PPB, peptide at MBC or higher concentrations (12.5-0.8 µM tested), 200 ng/ml PI): 1 to 2 min
PI uptake kinetics compared at respective MBC values (E. coli [3]; E. coli, polymyxin B 0.8 µM as control): more rapidly and effectively than polymyxin B
